Experimental data from patent US8338108B2, “Agent for promoting the production of thioredoxin” (Kyoto University, priority 2006, dated 2012).

Tested on: A549 cells
Test: Cytoprotective action to stimulation by cigarette smoke extract (LDH assay)
Assay type: cell-based, human
Settings: NAC 0.1 mM, FIG. 2
Experimental: A549 cells were pre-incubated for 16 hours with addition of a test substance (0.01 U/mL) in a DMEM medium wherefrom thiol was removed. Incubation was conducted for 6 hours more after addition of a cigarette smoke extract […] and, after that, LDH in the supernatant liquid of the culture was measured by means of an LDH assay (Roche Diagnostics) and used as an index for viability of the cells. The cigarette smoke extract (CSE) was prepared using a cigarette smoke generator SG-200 (Shibata Kagaku). Thus, smoke of ten cigarettes (Kentucky Research Cigarette 2R4F) which was passed through 10 mL of DMEM wherefrom thiol was removed (10% HEPES was added thereto) was defined as 100% CSE and used after appropriately diluting to the concentrations which were suitable for the experiments.

`CC(=O)N[C@@H](CS)C(=O)O` [NAC, N-acetylcysteine] was tested, and the “cell injury by CSE, effect of the extract compared with NAC” value was “identical”.
